US20230183356A1, “HIF-1a MODULATORS AND USES THEREOF” (Brown University, priority 2021, published 2023)
Where a SMILES comes first, the peptide text is derived from it. The star is where a group is joined. Cbz = O=C(OCc1ccccc1)*

System: HIF-1α
Assay: Western blot of HIF-1α expression in HCT116 cells
Assay type: cell-based
Conditions: for HIF-1α expression / HIF-1α expression increased by Smurf2 knockdown, effect of treatment: HCT116 cells; for HIF-1α expression: normoxia; for HIF-1α expression increased by Smurf2 knockdown, effect of treatment: Smurf2 siRNA 48 hours, normoxia 6 hours, Ro3306 5 μM, palbociclib 10 μM, abemaciclib 1 μM
Protocol: HCT116 cells were obtained from American Type Culture Collection (ATCC) and were maintained according to ATCC recommendation in McCoy's 5A medium (Hyclone) with 10% fetal bovine serum (FBS) (Hyclone) and 1% penicillin/streptomycin (P/S) (Corning). Cells were regularly tested for mycoplasma and authenticated. Cells were maintained at 37° C. in 5% CO2. Hypoxia treatment was performed in a hypoxia chamber (In vivo2, Ruskinn) which maintains 0.5% O2 and 5% CO2 at 37° C.
Plasmid expression was performed by 24 hours transfection using Opti-MEM (Thermo Fisher Scientific) and Lipofectamine 2000 (Life Technologies). Knockdown experiments were performed by siRNA transfection for 48 hours with Opti-MEM and Lipofectamine RNAiMAX (Life Technologies), according to the manufacturer's protocol.
Treated cells were lysed in RIPA buffer (Sigma). Protein concentrations were determined using a BCA Protein Assay Kit (Life Technologies). Equal amounts of total protein were boiled with NuPAGE™ LDS sample buffer (Thermo Fisher Scientific) and reducing agent (Invitrogen) or 2-mercaptoethanol. Samples were analyzed with SDS-PAGE. Proteins were transferred to an Immobilon-P PVDF membrane (EMD Millipore). Primary and secondary antibodies were added in order. Signals were detected after addition of the ECL western blotting substrate (Thermo Fisher Scientific).

Structure (SMILES) | HIF-1α expression upon Smurf2 overexpression (HCT116 cells transfected with myc-Smurf2 plasmid, 6 hours, dose-dependent) | HIF-1α expression (2 μM, 6 hours) | HIF-1α expression (5 μM, 6 hours) | HIF-1α expression increased by Smurf2 knockdown, effect of treatment | HIF-1α expression increased by Smurf2 knockdown, effect of treatment (listed as Ro3306)
CC(C)C[C@@H](C=O)NC(=O)[C@H](CC(C)C)NC(=O)[C@H](CC(C)C)NC(=O)OCc1ccccc1 [MG132] (Cbz-Leu-Leu-Leu-aldehyde) | partially rescued | increased | more robustly |  | 
O=C1NC(=NCc2cccs2)S/C1=C\c1ccc2ncccc2c1 [Ro-3306] |  |  |  | not reversed | further increased
